In ChEMBL document CHEMBL5465560, “Selectivity Literature for EUbOPEN Chemogenomic Library” (2024):

Assays:
[1] = target: TRAF2 and NCK-interacting protein kinase (Homo sapiens) (UniProt Q9UKE5); conditions: at 10 µM
[2] = target: Mitogen-activated protein kinase kinase kinase 4 (Homo sapiens) (UniProt Q9Y6R4); experiment: Selectivity interaction (KinomeScan (DiscoverX)) EUB0000655a MAP3K4; conditions: at 10 µM
[3] = target: Interferon-induced, double-stranded RNA-activated protein kinase (Homo sapiens) (UniProt P19525); experiment: Selectivity interaction (KinomeScan (DiscoverX)) EUB0001079a EIF2AK2; conditions: at 1 µM
[4] = target: Fibroblast growth factor receptor 3 (Homo sapiens, UniProt P22607); experiment: Selectivity interaction (Kinase panel (33PanQinase(R) Activity Assay)) EUB0000877a FGFR3
[5] = tested on: Epidermal growth factor receptor (Homo sapiens), P00533 [UNDEFINED MUTATION]; conditions: at 10 µM
[6] = target: Mitogen-activated protein kinase kinase kinase 21 (Homo sapiens) (UniProt Q5TCX8); experiment: Selectivity interaction (LanthaScreen Eu Kinase Binding Assay) EUB0001632a MAP3K21; conditions: at 10 µM
[7] = target: Bromodomain-containing protein 9 (Homo sapiens) (UniProt Q9H8M2); experiment: Selectivity interaction (Bromodomain panel (DSF asssay)) EUB0000270b BRD9
[8] = target: Platelet-derived growth factor receptor alpha (Homo sapiens, UniProt P16234); experiment: Selectivity interaction (Kinase panel (Enzyme activity assay)) EUB0000612a PDGFRA
[9] = target: T1, Kinase suppressor of Ras 1 (Homo sapiens) (UniProt Q8IVT5); experiment: Selectivity interaction (ActivX KiNativ screen (kinase selectivity in THP-1 cell lysates)) EUB0000639a KSR1; type: subcellular; conditions: lysate
T1 sequence (whole entry): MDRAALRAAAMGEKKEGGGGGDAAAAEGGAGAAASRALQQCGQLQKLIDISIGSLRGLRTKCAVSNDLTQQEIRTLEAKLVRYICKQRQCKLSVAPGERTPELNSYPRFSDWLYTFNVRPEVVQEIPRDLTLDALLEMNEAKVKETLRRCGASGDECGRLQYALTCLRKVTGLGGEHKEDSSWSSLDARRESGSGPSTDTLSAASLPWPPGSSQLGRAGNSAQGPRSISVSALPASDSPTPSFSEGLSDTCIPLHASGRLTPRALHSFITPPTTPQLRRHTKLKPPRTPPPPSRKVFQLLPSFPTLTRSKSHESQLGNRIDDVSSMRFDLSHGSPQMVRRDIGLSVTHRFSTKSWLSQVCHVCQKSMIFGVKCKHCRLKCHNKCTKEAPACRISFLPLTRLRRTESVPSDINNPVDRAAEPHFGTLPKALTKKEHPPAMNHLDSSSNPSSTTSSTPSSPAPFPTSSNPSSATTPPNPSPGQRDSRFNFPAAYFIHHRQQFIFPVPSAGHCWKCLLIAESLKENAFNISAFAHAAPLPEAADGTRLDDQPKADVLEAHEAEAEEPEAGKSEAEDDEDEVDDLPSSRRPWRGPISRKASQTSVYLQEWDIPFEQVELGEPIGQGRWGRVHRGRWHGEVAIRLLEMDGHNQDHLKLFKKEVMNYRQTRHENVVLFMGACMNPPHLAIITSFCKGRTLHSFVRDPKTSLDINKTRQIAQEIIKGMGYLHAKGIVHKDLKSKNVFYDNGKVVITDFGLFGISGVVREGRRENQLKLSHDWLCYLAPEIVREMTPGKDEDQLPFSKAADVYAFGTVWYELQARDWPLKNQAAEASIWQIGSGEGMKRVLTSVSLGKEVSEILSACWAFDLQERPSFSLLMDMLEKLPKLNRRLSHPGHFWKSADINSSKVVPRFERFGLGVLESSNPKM

[10] = target: Serine/threonine-protein kinase PRP4 homolog (Homo sapiens) (UniProt Q13523); experiment: Selectivity interaction (ActivX KiNativ screen (kinase selectivity in THP-1 cell lysates)) EUB0000639a PRPF4; type: subcellular; conditions: lysate
[11] = target: T2, Serine/threonine-protein kinase Sgk3 (Homo sapiens) (UniProt Q96BR1); experiment: Selectivity interaction (SelectScreen profiling (Invitrogen)) EUB0000607a SGK3; conditions: at 2 µM
T2 sequence (whole entry): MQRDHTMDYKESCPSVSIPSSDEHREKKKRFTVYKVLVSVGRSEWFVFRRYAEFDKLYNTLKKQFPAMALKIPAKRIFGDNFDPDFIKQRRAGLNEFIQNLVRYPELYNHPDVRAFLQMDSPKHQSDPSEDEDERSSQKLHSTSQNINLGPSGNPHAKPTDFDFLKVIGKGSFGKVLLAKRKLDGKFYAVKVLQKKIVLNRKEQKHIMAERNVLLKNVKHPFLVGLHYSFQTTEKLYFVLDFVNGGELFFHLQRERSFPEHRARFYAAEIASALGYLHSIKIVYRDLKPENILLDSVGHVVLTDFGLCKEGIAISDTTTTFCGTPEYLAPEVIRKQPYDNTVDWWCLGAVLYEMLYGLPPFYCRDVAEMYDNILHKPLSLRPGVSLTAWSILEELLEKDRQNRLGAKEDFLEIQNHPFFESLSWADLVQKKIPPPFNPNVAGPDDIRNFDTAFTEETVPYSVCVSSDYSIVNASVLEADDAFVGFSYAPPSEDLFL

[12] = target: Neuronal acetylcholine receptor; alpha4/beta2 (Homo sapiens) (UniProt P17787+P43681); experiment: Selectivity interaction (Panel of non-epigenetic targets (kinases, GPCRs, ion channels, and transporters, Eurofins) ) EUB0000271b CHRNA4; type: protein-complex assay; conditions: at 1 µM
[13] = target: T3, Serine/threonine-protein kinase Chk1 (Homo sapiens) (UniProt O14757); conditions: at 10 µM
T3 sequence (whole entry): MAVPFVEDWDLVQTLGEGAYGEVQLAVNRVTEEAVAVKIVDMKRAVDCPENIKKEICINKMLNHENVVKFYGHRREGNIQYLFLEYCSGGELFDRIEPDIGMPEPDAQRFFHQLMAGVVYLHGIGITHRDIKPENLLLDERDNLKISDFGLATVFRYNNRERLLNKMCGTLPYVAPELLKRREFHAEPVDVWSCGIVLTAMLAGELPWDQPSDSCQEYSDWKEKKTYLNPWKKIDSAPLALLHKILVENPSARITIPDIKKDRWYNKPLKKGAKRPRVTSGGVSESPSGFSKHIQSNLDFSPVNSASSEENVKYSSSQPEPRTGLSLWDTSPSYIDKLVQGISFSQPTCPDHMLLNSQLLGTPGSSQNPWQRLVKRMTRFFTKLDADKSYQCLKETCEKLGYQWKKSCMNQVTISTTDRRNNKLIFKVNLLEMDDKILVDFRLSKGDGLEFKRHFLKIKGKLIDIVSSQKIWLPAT

[14] = target: Dual specificity protein kinase CLK4 (Homo sapiens, UniProt Q9HAZ1); experiment: Selectivity interaction (KinomeScan (DiscoverX)) EUB0000618a CLK4; conditions: at 10 µM

Sequence of Serine/threonine-protein kinase PRP4 homolog (Homo sapiens) (Q13523 whole entry): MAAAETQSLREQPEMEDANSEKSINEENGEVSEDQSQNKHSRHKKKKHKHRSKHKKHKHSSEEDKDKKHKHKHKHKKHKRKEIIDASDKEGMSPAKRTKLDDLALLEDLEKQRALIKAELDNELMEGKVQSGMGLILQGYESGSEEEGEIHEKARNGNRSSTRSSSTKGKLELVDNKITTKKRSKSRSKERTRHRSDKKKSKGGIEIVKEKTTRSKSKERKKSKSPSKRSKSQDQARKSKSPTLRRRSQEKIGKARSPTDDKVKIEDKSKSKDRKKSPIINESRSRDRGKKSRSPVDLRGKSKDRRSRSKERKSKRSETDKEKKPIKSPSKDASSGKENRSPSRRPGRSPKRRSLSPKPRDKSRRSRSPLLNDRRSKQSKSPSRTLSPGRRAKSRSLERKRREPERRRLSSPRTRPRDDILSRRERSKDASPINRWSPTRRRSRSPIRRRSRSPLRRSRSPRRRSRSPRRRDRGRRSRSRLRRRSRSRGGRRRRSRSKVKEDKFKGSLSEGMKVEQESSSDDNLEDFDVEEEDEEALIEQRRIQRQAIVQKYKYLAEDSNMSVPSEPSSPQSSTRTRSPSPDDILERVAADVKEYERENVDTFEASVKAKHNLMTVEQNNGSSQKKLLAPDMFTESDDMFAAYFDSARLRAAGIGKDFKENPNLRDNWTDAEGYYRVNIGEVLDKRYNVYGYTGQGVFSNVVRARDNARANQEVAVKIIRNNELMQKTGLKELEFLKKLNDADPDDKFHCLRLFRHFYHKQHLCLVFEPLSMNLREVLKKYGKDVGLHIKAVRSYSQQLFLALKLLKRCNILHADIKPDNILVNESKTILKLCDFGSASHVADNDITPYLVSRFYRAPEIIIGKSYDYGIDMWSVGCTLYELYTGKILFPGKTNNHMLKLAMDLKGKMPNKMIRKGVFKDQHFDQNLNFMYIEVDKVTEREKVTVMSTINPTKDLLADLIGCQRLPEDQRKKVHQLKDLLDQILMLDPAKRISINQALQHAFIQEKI
Sequence of Mitogen-activated protein kinase kinase kinase 21 (Homo sapiens) (Q5TCX8 whole entry): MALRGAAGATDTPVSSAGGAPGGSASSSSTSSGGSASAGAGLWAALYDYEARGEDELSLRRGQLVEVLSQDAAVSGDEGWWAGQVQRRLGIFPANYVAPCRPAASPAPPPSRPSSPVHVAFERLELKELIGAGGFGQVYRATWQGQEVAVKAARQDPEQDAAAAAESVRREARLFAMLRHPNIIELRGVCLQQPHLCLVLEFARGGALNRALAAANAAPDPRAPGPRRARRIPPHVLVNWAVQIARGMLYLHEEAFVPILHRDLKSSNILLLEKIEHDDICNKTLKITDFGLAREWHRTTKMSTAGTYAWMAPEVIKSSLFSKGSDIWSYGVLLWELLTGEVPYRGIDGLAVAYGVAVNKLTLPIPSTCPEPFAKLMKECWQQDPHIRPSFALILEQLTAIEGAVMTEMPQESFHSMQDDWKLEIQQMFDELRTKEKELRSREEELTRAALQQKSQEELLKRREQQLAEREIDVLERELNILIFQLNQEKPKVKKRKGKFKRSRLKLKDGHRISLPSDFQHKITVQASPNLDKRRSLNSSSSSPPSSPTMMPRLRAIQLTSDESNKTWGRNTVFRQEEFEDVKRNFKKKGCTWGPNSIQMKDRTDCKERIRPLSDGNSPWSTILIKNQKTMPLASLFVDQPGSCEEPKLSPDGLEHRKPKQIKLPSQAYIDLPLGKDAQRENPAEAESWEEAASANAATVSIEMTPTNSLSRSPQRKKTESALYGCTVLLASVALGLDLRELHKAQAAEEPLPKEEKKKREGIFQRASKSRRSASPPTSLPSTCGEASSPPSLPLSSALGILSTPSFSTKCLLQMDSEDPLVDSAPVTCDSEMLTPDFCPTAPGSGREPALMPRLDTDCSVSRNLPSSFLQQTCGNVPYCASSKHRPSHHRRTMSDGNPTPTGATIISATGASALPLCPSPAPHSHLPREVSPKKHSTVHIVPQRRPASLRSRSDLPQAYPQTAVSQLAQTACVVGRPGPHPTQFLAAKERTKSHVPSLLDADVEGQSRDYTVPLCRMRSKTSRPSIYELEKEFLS
Sequence of Epidermal growth factor receptor (Homo sapiens), P00533 [UNDEFINED MUTATION] (P00533 whole entry, looked up, change not shown): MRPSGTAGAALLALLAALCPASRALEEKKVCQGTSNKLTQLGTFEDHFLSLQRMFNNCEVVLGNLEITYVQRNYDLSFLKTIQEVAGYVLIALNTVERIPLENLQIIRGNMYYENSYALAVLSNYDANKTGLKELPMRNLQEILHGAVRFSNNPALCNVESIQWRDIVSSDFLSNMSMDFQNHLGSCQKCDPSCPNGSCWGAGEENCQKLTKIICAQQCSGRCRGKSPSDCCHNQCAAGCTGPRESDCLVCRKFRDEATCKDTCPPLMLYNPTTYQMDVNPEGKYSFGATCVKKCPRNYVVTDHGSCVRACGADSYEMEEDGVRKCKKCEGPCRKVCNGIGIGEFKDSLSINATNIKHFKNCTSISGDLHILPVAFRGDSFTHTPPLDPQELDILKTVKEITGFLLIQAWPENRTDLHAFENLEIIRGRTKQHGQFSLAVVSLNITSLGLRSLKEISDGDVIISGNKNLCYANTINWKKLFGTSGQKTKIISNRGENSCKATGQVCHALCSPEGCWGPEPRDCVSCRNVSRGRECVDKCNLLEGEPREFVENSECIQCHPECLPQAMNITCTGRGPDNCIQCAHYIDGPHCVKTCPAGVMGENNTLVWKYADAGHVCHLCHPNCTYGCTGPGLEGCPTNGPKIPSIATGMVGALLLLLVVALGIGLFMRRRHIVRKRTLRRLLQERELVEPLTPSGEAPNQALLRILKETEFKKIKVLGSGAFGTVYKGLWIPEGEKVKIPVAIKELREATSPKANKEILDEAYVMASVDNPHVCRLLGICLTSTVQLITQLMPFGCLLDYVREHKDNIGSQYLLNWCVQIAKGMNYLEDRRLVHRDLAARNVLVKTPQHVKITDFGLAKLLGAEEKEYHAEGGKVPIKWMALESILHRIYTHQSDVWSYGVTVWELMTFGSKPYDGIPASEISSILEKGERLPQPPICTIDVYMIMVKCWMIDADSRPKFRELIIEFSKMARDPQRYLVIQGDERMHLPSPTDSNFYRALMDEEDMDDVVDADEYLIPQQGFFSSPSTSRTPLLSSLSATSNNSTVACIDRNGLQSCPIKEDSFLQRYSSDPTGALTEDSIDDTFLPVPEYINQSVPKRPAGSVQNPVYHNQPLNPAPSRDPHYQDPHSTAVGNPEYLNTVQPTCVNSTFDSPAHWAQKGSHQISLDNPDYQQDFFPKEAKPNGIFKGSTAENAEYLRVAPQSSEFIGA
Sequence of Platelet-derived growth factor receptor alpha (P16234 whole entry): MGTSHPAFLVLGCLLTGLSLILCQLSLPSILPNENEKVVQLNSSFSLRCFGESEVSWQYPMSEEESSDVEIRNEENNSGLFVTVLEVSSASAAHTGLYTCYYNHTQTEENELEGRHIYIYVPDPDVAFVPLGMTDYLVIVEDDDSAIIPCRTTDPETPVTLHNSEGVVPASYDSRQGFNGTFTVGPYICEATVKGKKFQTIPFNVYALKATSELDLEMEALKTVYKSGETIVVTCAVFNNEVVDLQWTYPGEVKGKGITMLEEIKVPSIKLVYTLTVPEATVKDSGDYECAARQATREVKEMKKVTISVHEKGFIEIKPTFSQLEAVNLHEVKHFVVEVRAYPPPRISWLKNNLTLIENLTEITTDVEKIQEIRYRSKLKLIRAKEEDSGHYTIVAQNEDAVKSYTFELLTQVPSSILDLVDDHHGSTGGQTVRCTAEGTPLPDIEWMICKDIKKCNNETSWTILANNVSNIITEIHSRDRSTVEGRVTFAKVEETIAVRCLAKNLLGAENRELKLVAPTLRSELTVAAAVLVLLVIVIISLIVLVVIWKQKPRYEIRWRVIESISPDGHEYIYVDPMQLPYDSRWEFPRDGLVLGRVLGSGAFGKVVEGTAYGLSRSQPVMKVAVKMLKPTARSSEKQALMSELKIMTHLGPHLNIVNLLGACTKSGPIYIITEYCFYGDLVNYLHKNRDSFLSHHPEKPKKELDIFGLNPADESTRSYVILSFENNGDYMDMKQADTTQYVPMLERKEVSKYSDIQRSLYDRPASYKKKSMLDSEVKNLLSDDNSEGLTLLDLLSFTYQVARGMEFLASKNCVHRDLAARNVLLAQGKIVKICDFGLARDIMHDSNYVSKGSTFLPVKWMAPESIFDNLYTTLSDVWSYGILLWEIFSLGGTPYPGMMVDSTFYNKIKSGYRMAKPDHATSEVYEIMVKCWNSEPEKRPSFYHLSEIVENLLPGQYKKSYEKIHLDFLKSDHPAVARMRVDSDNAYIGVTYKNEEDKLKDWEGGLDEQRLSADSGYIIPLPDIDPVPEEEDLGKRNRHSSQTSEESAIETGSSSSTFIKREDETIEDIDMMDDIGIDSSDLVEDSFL
Sequence of Bromodomain-containing protein 9 (Homo sapiens) (Q9H8M2 whole entry): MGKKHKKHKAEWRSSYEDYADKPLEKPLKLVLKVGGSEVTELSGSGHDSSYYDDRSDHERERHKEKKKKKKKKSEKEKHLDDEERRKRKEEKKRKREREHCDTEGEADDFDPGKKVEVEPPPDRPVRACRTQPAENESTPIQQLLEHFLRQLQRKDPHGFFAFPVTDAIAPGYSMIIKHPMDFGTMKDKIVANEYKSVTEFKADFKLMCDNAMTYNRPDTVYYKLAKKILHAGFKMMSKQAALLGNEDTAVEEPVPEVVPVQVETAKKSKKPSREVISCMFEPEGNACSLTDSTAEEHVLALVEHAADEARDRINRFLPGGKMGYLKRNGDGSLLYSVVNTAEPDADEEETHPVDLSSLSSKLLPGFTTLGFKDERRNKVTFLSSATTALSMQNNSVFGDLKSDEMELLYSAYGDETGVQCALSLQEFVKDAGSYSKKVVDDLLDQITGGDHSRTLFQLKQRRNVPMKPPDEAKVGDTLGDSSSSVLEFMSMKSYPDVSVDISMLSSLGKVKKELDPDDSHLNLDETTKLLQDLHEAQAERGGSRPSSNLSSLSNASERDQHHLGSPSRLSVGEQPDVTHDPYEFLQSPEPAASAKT

Work on `CCN(CC)CCCCNc1ncc2cc(-c3cc(OC)cc(OC)c3)c(NC(=O)NC(C)(C)C)nc2n1` yielded a % of control [1] of 100%.

Compound `CN(C)CCOc1ccc(-c2nc(-c3ccncc3)c(-c3ccc4c(c3)CC/C4=N\O)[nH]2)cc1` has a % of control [2] of 83%.

With `Nc1cnc(N2CCc3cc(S(=O)(=O)Nc4c(F)cc(Cl)cc4F)cc(N4CCCC4=O)c32)nc1` [TP-020n] the % of control [3] was 41%.

Compound `CCC(=O)N1CC[C@H](Nc2ncnc3c2CN(c2cnc(OC)c(C(F)(F)F)c2)CC3)C1` [LENIOLISIB] has an IC50 [4] greater than 10 µM.

For `Cc1cc([C@@H](C)Nc2ccccc2C(=O)O)c2nc(N3CCOCC3)cc(=O)n2c1` [AZD-6482], the % of control [5] was 100%.

For `Cn1cc(-n2cnc3c(NCc4nc5cc(Cl)c(Cl)cc5[nH]4)nc(N4CCOCC4)nc32)cn1`, the % of inhibition [6] was -59.8%.

`Cc1cc(CN)cc(C)c1-c1ncn(C)c1-c1cncn1C` showed a dTM [7] of -1.14 K.

Compound `CCc1cccc(CC)c1NC(=O)c1nn(C)c2c1CCc1cnc(Nc3ccc(C(=O)NC4CCN(C)CC4)cc3OC(F)(F)F)nc1-2` has an IC50 [8] greater than 10 µM.

`CC[C@@H]1[C@H](F)C(=O)N[C@@H]1COc1nccc2cc(C(N)=O)c(OC)cc12` [ZIMLOVISERTIB] was tested, and the % of inhibition ([9]; at 0.01 µM) was 2.4%, the % of inhibition ([9]; at 0.04 µM) was -6.6% and the % of inhibition ([9]; at 0.2 µM) was -8.6%. For the same compound, the % of inhibition ([9]; at 1 µM) was -32.8%, the % of inhibition ([9]; at 5 µM) was -57.9% and the % of inhibition ([10]; at 0.01 µM) was -2.3%. It also gave a % of inhibition ([10]; at 0.04 µM) of 7.1%, a % of inhibition ([10]; at 0.2 µM) of 29.8% and a % of inhibition ([10]; at 1 µM) of 73.9%. It also gave a % of inhibition ([10]; at 5 µM) of 86.3%.

In the case of `CNC(=O)Nc1ccc(-c2nc(N3CC4CCC(C3)O4)c3cnn(C4CCC5(CC4)OCCO5)c3n2)cc1`, the % of inhibition [11] is reported as 3%.

`Cc1cc(C)cc([C@@H]2c3cc(C)ccc3NC(=O)CN2C(=O)c2ccc(Br)s2)c1` showed a % of inhibition [12] of -18%.

Compound `COCC(=O)NC/C=C/c1ccc2ncnc(Nc3ccc(Oc4ccc(C)nc4)c(C)c3)c2c1` [CP-724714] has a % of control [13] of 90%.

In the case of `O[C@H]1CC[C@H](Nc2ncc3nc(Nc4c(F)cc(F)cc4F)n([C@H]4CCOC4)c3n2)CC1`, the % of control [14] is reported as 100%.
